Reference: patent publication US12584915B2, “Glyphosate biosensor” (priority 2019, dated 2026)
Read-outs that look alike come from different tables or passages of the source.

How the values were obtained:
[1] = system: PND177NΔ (SEQ ID NO: 2); assay: biochemical; assay type: binding, E. coli; settings: PhnD-E177NΔ sensor vs wild type
Excerpt: (§1) To determine the Kd values, the ratio of fluorescence between two wavelengths (570 nm/450 nm) was monitored as a function of increasing ligand concentrations (FIGS. 2 and 3). The titration data were fit to a single binding isotherm equation (eq. 1), where R is defined as the fluorescence ratio at a given ligand concentration [L], R0 is the fluorescence ratio in the absence of ligand and Rmax is the fluorescence ratio at saturating ligand concentrations.
(§2) Fluorescent screening and data Analysis. All fluorescence measurements were collected on a SpectraM2 fluorescence spectrometer at 22° C. Acrylodan excitation was set-up at 359 nm and an emission sweep was collected between 400-600 nm. Coumarin conjugated PhnD was excited at 419 nm and an emission spectrum was collected between 430-520 nm. Titrations were performed by increasing concentration of ligand and monitoring the changes in fluorescence intensity at 465 nm for coumarin conjugates or the ratio of fluorescence at 570 nm/450 nm. Error bars represent the standard deviation from three individual titrations. The fluorescence intensity at each wavelength was measured three times for each ligand concentration and the average of the reading was calculated. The ratio of the two averages from each of the three titrations was used to calculate the standard deviation. Kd values were determined by fitting the titration data to the following single binding isotherm equation using Kaleidagraph, where F is the observed fluorescence at a certain ligand concentration [L], Fo is the fluorescence in the absence of ligand, and Fmax is the fluorescence at saturating ligand concentrations.

[2] = target: T1, PND177NΔ (SEQ ID NO: 2) (Escherichia coli, UniProt P16682, E203N/N152C); assay: biochemical; assay type: binding, E. coli; settings: for affinity of the sensor for the ligand, in words: PhnD-E177NΔ sensor
T1 construct: made in house; host or cells: E. coli BL21 DE3
Excerpt: as §1, §2

[3] = target: EcPhnD (Escherichia coli, UniProt P16682); settings: cited from earlier work
[4] = target: T2, WT (SEQ ID NO: 5) EcPhnD (Escherichia coli, UniProt P16682, N152C); assay: biochemical; assay type: binding, E. coli
T2 construct: made in house; host or cells: E. coli BL21 DE3
Experimental: as §2

[5] = Fluorescence titration of acrylodan-labelled PhnD variants with glyphosate; assay type: binding
Excerpt: The fluorescent reporter group attached to PhnD changes its emission properties in response to glyphosate binding which can be observed using fluorescent spectroscopy. This allows detection of a ligand (in this case glyphosate), where fluorescence emission can be used to determine the concentration of glyphosate in solution. Two main types of data were collected, Apo vs Saturated spectra showing fluorescence emission with and without glyphosate (not shown), and the other type was titrations done with increasing glyphosate concentrations to determine the Kd value for each mutant for glyphosate.
The purified, fluorescently-labeled mutants were tested for their ability to bind to glyphosate. Kd values were determined by monitoring the changes in fluorescence as a function of increasing ligand concentrations. Table 1 provides dissociation constants (Kd values) of different PhnD variants for glyphosate. All mutants contain a cysteine at position 126 for attachment of acrylodan. Values were obtained by monitoring fluorescence change as a function of ligand concentration using eq. 1.
as §1, with “Importantly, the change in fluorescence associated with ligand binding is ratiometric with a larger decrease in emission at lower wavelengths. To” for “To”
Fluorescent screening and data Analysis. All fluorescence measurements were collected on a SpectraM2 fluorescence spectrometer at 22° C. […] Titrations were performed by increasing concentration of ligand and monitoring the changes in fluorescence intensity at 465 nm for coumarin conjugates or the ratio of fluorescence at 570 nm/450 nm. […]

[6] = PND177NΔ (SEQ ID NO: 2), acrylodan, ratio 570 nm/450 nm, read-out: PND177NΔ Kd
[7] = WT (SEQ ID NO: 5), read-out: WT Kd

T2 sequence (P16682 27-338 N152C): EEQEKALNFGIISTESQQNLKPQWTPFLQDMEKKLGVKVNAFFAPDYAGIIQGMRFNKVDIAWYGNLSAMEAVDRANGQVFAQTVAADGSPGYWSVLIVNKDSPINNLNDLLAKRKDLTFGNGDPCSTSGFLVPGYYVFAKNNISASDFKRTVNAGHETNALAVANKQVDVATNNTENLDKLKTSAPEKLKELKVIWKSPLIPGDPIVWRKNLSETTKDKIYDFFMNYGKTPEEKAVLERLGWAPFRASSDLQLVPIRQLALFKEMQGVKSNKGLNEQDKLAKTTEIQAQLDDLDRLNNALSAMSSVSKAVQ
EcPhnD, sequence (P16682 27-338): as the sequence (P16682 27-338 N152C) above, with C126N counted along it

Molecule: NCCP(=O)(O)O [2-Aminoethyl Phosphate (2-AEP), 2-Aminoethyl Phosphonate]
- reduction of affinity compared to the wild-type protein [1]: more than 3 orders of magnitude
- Kd [2, 6]: 5.61 µM
- Kd ([3]; natural ligand, background statement, read-out: Kd of PhnD for 2-AEP): ~0.005 µM
- Kd [4, 7]: 0.002 µM

Molecule: O=C(O)CNCP(=O)(O)O [Glyphosate]
- Kd [2]: 4.29 µM
- Kd ([3]; previous research, read-out: Kd of EcPhnD for glyphosate): ~650 µM
- Kd [4]: 650 µM

Molecule: Arsenate
- Kd [2, 6]: 10.7 µM
- affinity of the sensor for the ligand, in words [2]: moderate affinities
- Kd [4, 7]: 230 µM

Molecule: Phosphate
- Kd [2, 6]: 26.1 µM
- affinity of the sensor for the ligand, in words [2]: moderate affinities
- Kd [4, 7]: 260 µM

B1: E177NΔ (protein)
chain: EEQEKALNFGIISTESQQNLKPQWTPFLQDMEKKLGVKVNAFFAPDYAGIIQGMRFNKVDIAWYGNLSAMEAVDRANGQVFAQTVAADGSPGYWSVLIVNKDSPINNLNDLLAKRKDLTFGNGDPCSTSGFLVPGYYVFAKNNISASDFKRTVNAGHETNALAVANKQVDVATNNTNNLDKLKTSAPEKLKELKVIWKSPLIPGSPIVWRKNLSETTKDKIYDFFMNYGKTPEEKAVLERLGWAPFRASSDLQLVPIRQLALFKEMQGVKSNKGLNEQDKLAKTTEIQAQLDDLDRLNNALSA
- fold increase in affinity for glyphosate over the wild-type protein [5]: over 150 fold
- fluorescence change associated with glyphosate binding ([5]; saturating glyphosate (FIG. 6)): large decrease in fluorescence

B2: E177N (protein)
chain: EEQEKALNFGIISTESQQNLKPQWTPFLQDMEKKLGVKVNAFFAPDYAGIIQGMRFNKVDIAWYGNLSAMEAVDRANGQVFAQTVAADGSPGYWSVLIVNKDSPINNLNDLLAKRKDLTFGNGDPCSTSGFLVPGYYVFAKNNISASDFKRTVNAGHETNALAVANKQVDVATNNTNNLDKLKTSAPEKLKELKVIWKSPLIPGDPIVWRKNLSETTKDKIYDFFMNYGKTPEEKAVLERLGWAPFRASSDLQLVPIRQLALFKEMQGVKSNKGLNEQDKLAKTTEIQAQLDDLDRLNNALSAMSSVSKAVQ
- fold increase in affinity for glyphosate over the wild-type protein [5]: 80 fold
